Results reported in patent US20240166658A1, “PORPHYRIN DERIVATIVES AND USES THEREOF” (University of Tasmania, priority 2021, published 2024).

Assays:
[1] = RGB response curve, high PFCA concentration; settings: host 5.01×10^−6 M, dichloromethane
Excerpt: The present inventors investigated the colorimetric responses for host (12) with “high” concentrations of PFCA (where [host]<[guest]), and “low” concentrations of PFCA (where [host]>[guest]). Generally, RGB response values will increase with increasing concentrations of PFCA until the host has been saturated; beyond the saturation limit, RGB response values are similar. When there was an excess of guest, the response values could only be used as a threshold indication for PFCA concentrations.
RGB response curves were established by combining solutions of host (12) (5.01×10^−6 M) with solutions of PFOA (0-16 ppm, 3.86×10^−5 M) in dichloromethane. […] Thus, when establishing a calibration curve, the relative proportion of free host to host−PFCA complex limiting the variability of colour response must be considered for the application.
For the “high” PFCA concentration experiment, the PFOA generated calibration curve (y=0.0401 ln(x)+0.2366, R^2=0.9677) (FIG. 17) begins to level out at ca. 2 ppm. Above that concentration, the RGB response values are difficult to differentiate.

[2] = PFCA guest response screening (RGB analysis, UV-Vis)
Method: A Puluz® 20 cm portable light tent with moderate and dispersed white LED lighting was used to photograph samples using an iPhone 6S plus camera on a fixed tripod. The automatic flash settings were disabled so there was no reflective interference on the sample vials. Samples that were being directly compared were photographed together to ensure lighting conditions and settings were consistent. The photographs were analysed using ImageJ software according to the procedure of Gallagher, 2014b. Multiple RGB values were chosen from areas of each sample at random to provide an “average” RGB value (Menesatti et al., 2012; Gallagher, 2014a; Phuangsaijai et al., 2021). Those RGB values were used to produce an artificial colour tile for visual comparison, or parameterized for modelling.
To quantify a colour difference, RGB values were transformed within the CIELab colour space. The difference, expressed as ΔE, was determined by measuring the relative distance between two colours. The numeric ΔE value can be used to predict how the two colours are perceived by a standard observer; a ΔE>2 is considered the minimum value to achieve a “just noticeable difference” (JND) (Table 1), which is the smallest difference required for an untrained observer to be able to determine two colours as being different (Castillo et al., 2021).
Experiments were performed at concentrations that could be monitored by the naked eye for practical sensing of PFAS in the field. Complexes of hosts (9), (11) and (12) were formed with the nine different perfluorocarboxylic acids (PFCAs) shown in Table 2 above and the colours of each host−PFCA complex were photographed in a lightbox and analysed using ImageJ software RGB analysis. Pixels of the solution were chosen at random to provide an RGB value. Multiple RGB values were recorded for each host−PFCA solution, and an average colour can be produced. From those values an RGB parameter was used to give a response value for modelling (Tahir et al., 2016).
After preliminary screenings, UV-Vis spectra were collected before and after the addition of 1 molar equivalent of each PFCA for each host, and the degree of complexation was noted by shifts in the Soret bands and formation of a peak at ca. 650 nm. To eliminate dilution effects, PFCA guest solutions were prepared in the equivalent concentration of host. If there was a notable host−guest interaction for a particular PFCA, the host−guest binding was investigated with more rigorous UV-Vis experiments, binding studies, and further colour analyses. Throughout these investigations, PFOA was considered the “average” PFCA both because of its position in the range of PFCA sizes and because its prevalence is often an indication of broader PFAS contamination. In any experiment where binding was further investigated for a particular PFCA, it was typically replicated with PFOA for comparison.

[3] = UV-Vis host-guest titration, association constant; format: binding; settings: host (9) in dichloromethane; triplicate, TBA salt and acid; Bindfit
Method: Path length of the quartz cell was 1 cm. For UV-vis titrations, a stock solution of host was prepared (2.2×10^−3 M) in dichloromethane (DCM) and serially diluted to the required concentrations. Working solutions of tetrabutylammonium (TBA) anion salts or guest molecules were prepared in the same manner Host−guest titrations used solutions of guest prepared in the working concentration of host solution, according to the procedure of Thordarson, 2011.
UV-vis spectroscopic host−guest titrations were performed in accordance with the methodologies of Thordarson, 2011. Solutions of host in dichloromethane were prepared. Solutions of guest were then prepared in the host solution. Aliquots of guest in host solution were added to host solution and sequentially analysed until a known molar equivalent of guest was added. The amount of guest added per aliquot was ascertained by a preliminary screening experiment; strong association constants required smaller molar equivalents so more information could be collected. By way of example, host (9) responded to 0.1 molar equivalent of PFBA strongly, so an addition of 1 molar equivalent of PFBA would result in a loss of information. The inverse is true for weaker binding interactions. […]
A host solution of host (9) in dichloromethane was monitored using UV-Vis analysis as 0.5-10 equivalents of each PFAS was added. […]

[4] = Non-fluorinated and neutral fluorinated guest molecules, UV-Vis; format: binding; settings: 10 molar equivalents, dichloromethane; immediately and 24 hours later
Method: The binding interaction was probed by combining the host (9) with non-fluorinated and neutral fluorinated guest molecules. Solutions of host (9) in dichloromethane were combined with 10 molar equivalents of tetrafluorobenzene and nonanoic acid. Solutions were analysed using UV-Vis spectroscopy (immediately and 24 hours later) to check for any indication of binding.

[5] = host + one equivalent PFBA in dichloromethane
[6] = host + one equivalent PFDA in dichloromethane
[7] = host + one equivalent PFDoDA in dichloromethane
[8] = host + one equivalent PFHpA in dichloromethane
[9] = host + one equivalent PFHxA in dichloromethane
[10] = host + one equivalent PFNA in dichloromethane
[11] = host + one equivalent PFOA in dichloromethane
[12] = host + one equivalent PFPeA in dichloromethane
[13] = host + one equivalent PFUnDA in dichloromethane

SMILES	Absorbance @ 650 nm [2, 5]	Absorbance @ 650 nm [2, 6]	Absorbance @ 650 nm [2, 7]	Absorbance @ 650 nm [2, 8]	Absorbance @ 650 nm [2, 9]	Absorbance @ 650 nm [2, 10]	Absorbance @ 650 nm [2, 11]	Absorbance @ 650 nm [2, 12]	Absorbance @ 650 nm [2, 13]	ΔEHost-PFCA ([2]; host vs host + PFBA)	ΔEHost-PFCA ([2]; host vs host + PFDA)	ΔEHost-PFCA ([2]; host vs host + PFDoDA)	ΔEHost-PFCA ([2]; host vs host + PFHpA)	ΔEHost-PFCA ([2]; host vs host + PFHxA)	ΔEHost-PFCA ([2]; host vs host + PFNA)	ΔEHost-PFCA ([2]; host vs host + PFOA)	ΔEHost-PFCA ([2]; host vs host + PFPeA)	ΔEHost-PFCA ([2]; host vs host + PFUnDA)	further results
O=C(Nc1ccccc1-c1c2nc(c(-c3ccccc3NC(=O)C(F)(F)C(F)(F)C(F)(F)C(F)(F)C(F)(F)C(F)(F)C(F)(F)C(F)(F)C(F)(F)C(F)(F)C(F)(F)F)c3ccc([nH]3)c(-c3ccccc3NC(=O)C(F)(F)C(F)(F)C(F)(F)C(F)(F)C(F)(F)C(F)(F)C(F)(F)C(F)(F)C(F)(F)C(F)(F)C(F)(F)F)c3nc(c(-c4ccccc4NC(=O)C(F)(F)C(F)(F)C(F)(F)C(F)(F)C(F)(F)C(F)(F)C(F)(F)C(F)(F)C(F)(F)C(F)(F)C(F)(F)F)c4ccc1[nH]4)C=C3)C=C2)C(F)(F)C(F)(F)C(F)(F)C(F)(F)C(F)(F)C(F)(F)C(F)(F)C(F)(F)C(F)(F)C(F)(F)C(F)(F)F [host (12), α,α,α,α-5,10,15,20-tetrakis(2-(tricosafluorododecanoylamino)phenyl) porphyrin]	0.0906	0.0918	0.0769	0.0737	0.0728	0.0953	0.0913	0.0692	0.0808	21.1	22.3	17.9	16.3	17.5	22.3	21.8	9.8	18.8	PFOA concentration at which calibration curve begins to level out [1]: ca. 2 ppm
O=C(Nc1ccccc1-c1c2nc(c(-c3ccccc3NC(=O)C(F)(F)C(F)(F)C(F)(F)C(F)(F)C(F)(F)C(F)(F)C(F)(F)F)c3ccc([nH]3)c(-c3ccccc3NC(=O)C(F)(F)C(F)(F)C(F)(F)C(F)(F)C(F)(F)C(F)(F)C(F)(F)F)c3nc(c(-c4ccccc4NC(=O)C(F)(F)C(F)(F)C(F)(F)C(F)(F)C(F)(F)C(F)(F)C(F)(F)F)c4ccc1[nH]4)C=C3)C=C2)C(F)(F)C(F)(F)C(F)(F)C(F)(F)C(F)(F)C(F)(F)C(F)(F)F [host (9), α,α,α,α-5,10,15,20-tetrakis(2-(pentadecafluorooctanoylamino)phenyl)porphyrin]	0.04939	0.03023	0.01719	0.04879	0.04964	0.02986	0.02885	0.04302	0.02958	46.1	39.6	22.4	47.2	47.3	38.5	39.3	46.2	38.5	K value (averaged association constant Ka) [3]: 12999; colorimetric response [4]: no colorimetric response
